We go through 19 compounds from ChEMBL document CHEMBL5532634, “Oxazolidinone: A promising scaffold for the development of antibacterial drugs” (Eur J Med Chem, 2023).

Structures are written as SMILES. Values after ≈ are worked out from the molar mass of the structure shown.

Common to all, as to type: functional
Experiment [1] has as its system Staphylococcus aureus. The experiment can be described thus: Antibacterial activity against Staphylococcus aureus ATCC 29213 assessed as reduction in bacterial growth incubated for 24 hrs by Mueller Hinton Agar based plate analysis.
The test system of experiment [2] is Staphylococcus aureus. The experiment can be described thus: Antibacterial activity against Staphylococcus aureus ATCC 29213 assessed as bacterial growth inhibition incubated for 24 hrs by broth dilution method.
In experiment [3] the test system is Staphylococcus aureus. The experiment can be described thus: Antibacterial activity against methicillin-resistant Staphylococcus aureus ATCC 3300 assessed as reduction in microbial growth measured after 24 hrs by broth microdilution analysis. For orientation: In broth dilution the organism is exposed to a series of concentrations in liquid medium.
Experiment [4] relates to Staphylococcus aureus. The experiment in a line: Antibacterial activity against Linezolid-resistant Staphylococcus aureus assessed as reduction in bacterial growth.
Another experiment concerns Enterococcus faecium. The experiment can be described thus: Antibacterial activity against Linezolid-resistant Enterococcus faecium assessed as reduction in bacterial growth.
A further experiment concerns Haemophilus influenzae. The experiment in a line: Antibacterial activity against Haemophilus influenzae UC30063 assessed as reduction in bacterial growth by broth microdilution method.
A further experiment has as its system Moraxella catarrhalis. The experiment can be described thus: Antibacterial activity against Moraxella catarrhalis UC30610 assessed as reduction in bacterial growth by broth microdilution method.
Experiment [5] concerns Staphylococcus epidermidis. The experiment in a line: Antibacterial activity methicillin-resistant Staphylococcus epidermidis UC12084 assessed as reduction in bacterial growth by broth microdilution method.
In experiment [6] the test system is Staphylococcus aureus. The experiment in a line: In vivo Antibacterial activity against Methicillin-resistant Staphylococcus aureus in PO dosed mouse infected model assessed as reduction in bacterial load.
The next experiment relates to Enterococcus faecalis. The experiment in a line: Antibacterial activity against Enterococcus faecalis UC9217 assessed as reduction in bacterial growth by broth microdilution method.
For experiment [7], the system named is Staphylococcus aureus. The experiment can be described thus: Antibacterial activity against Staphylococcus aureus ATCC 29213 assessed as reduction in microbial growth measured after 24 hrs by broth microdilution analysis.
Experiment [8] has as its system Staphylococcus aureus. The experiment in a line: Antibacterial activity against Methicillin-resistant Staphylococcus aureus assessed as reduction in microbial growth by Muller Hinton broth based dilution assay.
Experiment [9] concerns Staphylococcus aureus. The experiment can be described thus: Antibacterial activity against Staphylococcus aureus ATCC 29213 assessed as reduction in bacterial growth incubated for 24 hrs by serial dilution method.

For the compound `CC(=O)NC[C@H]1CN(c2ccc3c(c2)OC[C@@H]2CCCN32)C(=O)O1`, the MIC in the experiment with Staphylococcus aureus [1] is 4 µg/mL (≈ 12.1 µM).

With `CC/C(S)=N\C[C@H]1CN(c2cc(F)c3c(c2)OC[C@@H]2CCCN32)C(=O)O1`, the MIC in the experiment on Staphylococcus aureus [2] came to 0.5 µg/mL (≈ 1.32 µM).

As to `CO/C(S)=N\C[C@H]1CN(c2cc(F)c3c(c2)OC[C@@H]2CCCN32)C(=O)O1`, the MIC with Staphylococcus aureus [2] amounted to 0.5 µg/mL (≈ 1.31 µM).

Turning to `N=C(S)NC[C@H]1CN(c2cc(F)c3c(c2)OC[C@@H]2CCCN32)C(=O)O1`, the MIC in the experiment with Staphylococcus aureus [2] is 0.5 µg/mL (≈ 1.36 µM).

In the case of `CC(=O)NC[C@H]1CN(c2ccc(C3=CCOCC3)c(F)c2)C(=O)O1`, the MIC in the experiment with Staphylococcus aureus [3] worked out at 0.13 µg/mL.

In the case of `O=C1O[C@@H](COc2ccccn2)CN1c1ccc(C2=CCOCC2)c(F)c1`, in the experiment on Staphylococcus aureus [3], the MIC is 1 µg/mL.

With `CC(=O)NC[C@H]1CN(c2ccc(N3CCN(c4c(F)cc5c(=O)c(C(=O)O)cn6c5c4OC[C@@H]6C)CC3)c(F)c2)C(=O)O1`, the MIC in the experiment on Staphylococcus aureus [4] was found to be 2 µg/mL (≈ 3.35 µM); in the experiment on Enterococcus faecium it was 0.5 µg/mL (≈ 0.837 µM).

For `CC(=O)NC[C@H]1CN(c2ccc(N3CCN(c4c(F)cc5c(=O)c(C(=O)O)cn6c5c4OCC6C)CC3)c(F)c2)C(=O)O1` (some centres undefined), the MIC was 2 µg/mL (≈ 3.35 µM) with Staphylococcus aureus [4] and 0.5 µg/mL (≈ 0.837 µM) in the experiment with Enterococcus faecium.

As for `CC(=O)NC[C@H]1CN(c2ccc(-n3ccc(C#N)c3)c(F)c2)C(=O)O1`, the MIC with Haemophilus influenzae amounted to 2 µg/mL (≈ 5.84 µM); in the experiment on Moraxella catarrhalis it was 2 µg/mL (≈ 5.84 µM); in experiment [5] it was 0.125 µg/mL (≈ 0.365 µM); with Enterococcus faecalis, 0.125 µg/mL (≈ 0.365 µM). The ED50 with Staphylococcus aureus [6] came to 1.9 mg/kg.

As for `CC(=O)NC[C@H]1CN(c2ccc(-n3cc(C#N)nn3)c(F)c2)C(=O)O1`, the MIC in the experiment on Haemophilus influenzae worked out at 2 µg/mL (≈ 5.81 µM); in the experiment on Moraxella catarrhalis, 2 µg/mL (≈ 5.81 µM); in [5], 0.125 µg/mL (≈ 0.363 µM); with Enterococcus faecalis, 0.125 µg/mL (≈ 0.363 µM). Besides, the ED50 with Staphylococcus aureus [6] came to 1.2 mg/kg.

Consider `CC(=O)NC[C@H]1CN(c2ccc(-n3ncc(C#N)n3)c(F)c2)C(=O)O1`, for which the MIC is 2 µg/mL (≈ 5.81 µM) in the experiment on Haemophilus influenzae, 2 µg/mL (≈ 5.81 µM) with Moraxella catarrhalis, 0.125 µg/mL (≈ 0.363 µM) in experiment [5] and 0.125 µg/mL (≈ 0.363 µM) in the experiment on Enterococcus faecalis. The median effective dose (ED50) in the experiment with Staphylococcus aureus [6] amounted to 1.9 mg/kg.

As for `C[C@@H](O)C(=O)N1CC=C(c2c(F)cc(N3C[C@H](COc4ccon4)OC3=O)cc2F)CC1`, the MIC with Staphylococcus aureus [7] was 0.25 µg/mL.

For `O=C1O[C@@H](Cn2ccnn2)CN1c1ccc(N2CCN(S(=O)(=O)c3cccc(C(F)(F)F)c3)CC2)c(F)c1`, the MIC in the experiment on Staphylococcus aureus [8] amounted to 0.5 µg/mL.

Regarding `O=C1O[C@@H](Cn2ccnn2)CN1c1ccc(N2CCN(S(=O)(=O)c3ccc(Cl)cc3)CC2)c(F)c1`, the MIC with Staphylococcus aureus [8] was determined as 0.5 µg/mL.

Take `O=C1O[C@@H](Cn2ccnn2)CN1c1ccc(N2CCN(S(=O)(=O)c3cccc(F)c3)CC2)c(F)c1`: in the experiment with Staphylococcus aureus [8], the MIC was 0.5 µg/mL.

For the compound `Nc1cccc(S(=O)(=O)N2CCN(c3ccc(N4C[C@H](Cn5ccnn5)OC4=O)cc3F)CC2)c1`, the MIC in the experiment on Staphylococcus aureus [8] was 0.5 µg/mL.

Take `CC(=O)NC[C@H]1CN(c2ccc(N3CCN(c4cc5c(cc4F)c(=O)c(C(=O)O)cn5C4CC4)CC3)c(F)c2)C(=O)O1`: the MIC in the experiment on Staphylococcus aureus [4] was 2 µg/mL (≈ 3.44 µM); in the experiment on Enterococcus faecium, 0.5 µg/mL (≈ 0.86 µM).

Turning to `CC(=O)NC[C@H]1CN(c2ccc(-n3cc(C(=O)O)c(=O)c4cc(F)c(N5CCN(C)CC5)cc43)c(F)c2)C(=O)O1`, the MIC with Staphylococcus aureus [9] is over 64 µg/mL.

Turning to `O=C([C@H](O)CO)N1CC=C(c2c(F)cc(N3C[C@H](COc4ccon4)OC3=O)cc2F)CC1`, in the experiment with Staphylococcus aureus [7], the MIC stood at 0.25 µg/mL.

A word on the ED50: it is the midpoint of the dose-response relation.
